Assay results taken from US8846947B2, “Benzimidazoles and related analogs as sirtuin modulators” (GlaxoSmithKline LLC, priority 2008, dated 2014).

These compounds were tested against T1, SIRT1 (Homo sapiens, UniProt Q96EB6) (assay: Mass spectrometry based SIRT1 deacetylase activation assay (acetylated p53-derived peptide substrate)).
T1 sequence (Q96EB6 1-747): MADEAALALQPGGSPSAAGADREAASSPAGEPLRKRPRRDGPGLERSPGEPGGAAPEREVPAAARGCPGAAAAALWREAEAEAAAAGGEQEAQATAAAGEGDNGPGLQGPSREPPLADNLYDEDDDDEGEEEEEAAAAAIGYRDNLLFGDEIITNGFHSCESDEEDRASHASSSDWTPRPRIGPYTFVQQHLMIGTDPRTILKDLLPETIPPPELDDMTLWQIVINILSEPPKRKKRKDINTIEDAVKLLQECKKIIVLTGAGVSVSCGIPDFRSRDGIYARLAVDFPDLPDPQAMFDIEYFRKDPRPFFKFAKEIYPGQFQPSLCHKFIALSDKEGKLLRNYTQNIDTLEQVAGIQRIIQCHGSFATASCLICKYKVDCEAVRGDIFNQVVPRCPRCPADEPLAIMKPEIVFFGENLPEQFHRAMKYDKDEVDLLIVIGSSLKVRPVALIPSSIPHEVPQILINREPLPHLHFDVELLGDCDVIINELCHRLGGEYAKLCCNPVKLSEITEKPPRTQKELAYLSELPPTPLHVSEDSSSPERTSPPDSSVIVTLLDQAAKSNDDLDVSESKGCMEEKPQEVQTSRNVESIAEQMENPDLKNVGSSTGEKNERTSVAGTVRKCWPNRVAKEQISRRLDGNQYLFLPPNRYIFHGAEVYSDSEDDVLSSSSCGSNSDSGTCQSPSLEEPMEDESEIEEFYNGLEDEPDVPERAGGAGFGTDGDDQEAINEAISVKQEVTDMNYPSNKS
Format: biochemical
In the case of `O=C(Nc1ccccn1)c1cccc2[nH]c(-c3cc(F)ccc3C(F)(F)F)nc12` [Compound 323], the EC1.5 is reported as “A (EC1.5<1.0 uM)” and the “Fold Act. (percent maximum fold activation)” value is reported as “A (Fold activation >200%)”.
For `O=C(Nc1nccs1)c1cccc2[nH]c(-c3cccc(OCC(O)CO)c3)nc12` (centres unmarked) [Compound 324, 2-(3-(2,3-dihydroxypropoxy)phenyl)-N-(thiazol-2-yl)-1H-benzo[d]imidazole-4-carboxamide], the EC1.5 was “A (EC1.5<1.0 uM)” and the “Fold Act. (percent maximum fold activation)” value was “A (Fold activation >200%)”.
For `O=C(Nc1nccs1)c1cccc2[nH]c(-c3ccc(OCC(O)CO)cc3)nc12` (centres unmarked) [Compound 325], the EC1.5 was “A (EC1.5<1.0 uM)” and the “Fold Act. (percent maximum fold activation)” value was “A (Fold activation >200%)”.
With `O=C(Nc1nccs1)c1cccc2[nH]c(-c3ccccc3OCC(O)CO)nc12` (centres unmarked) [Compound 326] the EC1.5 was “B (EC1.5 1-25 uM)” and the “Fold Act. (percent maximum fold activation)” value was “A (Fold activation >200%)”.
With `Cn1nc(C(F)(F)F)c(-c2nc3c(C(=O)Nc4ccccn4)cccc3[nH]2)c1Cl` [Compound 327] the EC1.5 was “A (EC1.5<1.0 uM)” and the “Fold Act. (percent maximum fold activation)” value was “A (Fold activation >200%)”.
With `Cn1nc(C(F)(F)F)c(-c2nc3c(C(=O)Nc4cccnc4)cccc3[nH]2)c1Cl` [Compound 328] the EC1.5 was “A (EC1.5<1.0 uM)” and the “Fold Act. (percent maximum fold activation)” value was “A (Fold activation >200%)”.
In the case of `O=C(Nc1cccc[n+]1[O-])c1cccc2[nH]c(-c3ccccc3C(F)(F)F)nc12` [Compound 329, 2-(2-(2-(trifluoromethyl)phenyl)-1H-benzo[d]imidazole-4-carboxamido)pyridine 1-oxide], the EC1.5 is reported as “B (EC1.5 1-25 uM)” and the “Fold Act. (percent maximum fold activation)” value is reported as “A (Fold activation >200%)”.
`O=C(Nc1cccc[n+]1[O-])c1cccc2[nH]c(-c3ccc(Cl)cc3C(F)(F)F)nc12` [Compound 330] was tested, and the EC1.5 was “B (EC1.5 1-25 uM)” and the “Fold Act. (percent maximum fold activation)” value was “A (Fold activation >200%)”.
For `O=C(Nc1ccc[n+]([O-])c1)c1cccc2[nH]c(-c3ccc(Cl)cc3C(F)(F)F)nc12` [Compound 331], the EC1.5 was “A (EC1.5<1.0 uM)” and the “Fold Act. (percent maximum fold activation)” value was “A (Fold activation >200%)”.
In the case of `O=C(Nc1cccc2[nH]c(-c3cccc(C(F)(F)F)c3)nc12)c1ccccn1` [Compound 333], the EC1.5 is reported as “B (EC1.5 1-25 uM)” and the “Fold Act. (percent maximum fold activation)” value is reported as “A (Fold activation >200%)”.
`O=C(Nc1cccc2[nH]c(-c3cccc(C(F)(F)F)c3)nc12)c1cccnc1` [Compound 334] was tested, and the EC1.5 was “B (EC1.5 1-25 uM)” and the “Fold Act. (percent maximum fold activation)” value was “A (Fold activation >200%)”.
For `O=C(Nc1cccc2[nH]c(-c3cccc(C(F)(F)F)c3)nc12)c1cnccn1` [Compound 335], the EC1.5 was “B (EC1.5 1-25 uM)” and the “Fold Act. (percent maximum fold activation)” value was “A (Fold activation >200%)”.
In the case of `O=C(Nc1ccc[n+]([O-])c1)c1cccc2[nH]c(-c3ccccc3C(F)(F)F)nc12` [Compound 336], the EC1.5 is reported as “A (EC1.5<1.0 uM)” and the “Fold Act. (percent maximum fold activation)” value is reported as “A (Fold activation >200%)”.
For `O=C(Nc1cc[n+]([O-])cc1)c1cccc2[nH]c(-c3ccccc3C(F)(F)F)nc12` [Compound 337], the EC1.5 was “A (EC1.5<1.0 uM)” and the “Fold Act. (percent maximum fold activation)” value was “A (Fold activation >200%)”.
`O=C(Nc1cc[n+]([O-])cc1)c1cccc2[nH]c(-c3ccc(Cl)cc3C(F)(F)F)nc12` [Compound 338] was tested, and the EC1.5 was “A (EC1.5<1.0 uM)” and the “Fold Act. (percent maximum fold activation)” value was “A (Fold activation >200%)”.
`O=C(Nc1nccs1)c1cccc2[nH]c(-c3ccc(OCCN4CCOCC4)cc3)nc12` [Compound 339] was tested, and the EC1.5 was “A (EC1.5<1.0 uM)” and the “Fold Act. (percent maximum fold activation)” value was “A (Fold activation >200%)”.
For `O=C(Nc1nccs1)c1cccc2[nH]c(-c3ccccc3OCCN3CCOCC3)nc12` [Compound 340], the EC1.5 was “A (EC1.5<1.0 uM)” and the “Fold Act. (percent maximum fold activation)” value was “A (Fold activation >200%)”.
In the case of `O=C(Nc1nccs1)c1cncc2[nH]c(-c3ccccc3C(F)(F)F)nc12` [Compound 341, N-(thiazol-2-yl)-2-(2-(trifluoromethyl)phenyl)-3H-imidazo[4,5-c]pyridine-7-carboxamide], the EC1.5 is reported as “A (EC1.5<1.0 uM)” and the “Fold Act. (percent maximum fold activation)” value is reported as “A (Fold activation >200%)”.
With `O=C(Nc1ccccn1)c1cccc2[nH]c(-c3ccc(-c4nnn[nH]4)cc3)nc12` [Compound 342] the EC1.5 was “A (EC1.5<1.0 uM)” and the “Fold Act. (percent maximum fold activation)” value was “A (Fold activation >200%)”.
`Cc1cnc(NC(=O)c2cccc3[nH]c(-c4ccccc4C(F)(F)F)nc23)s1` [Compound 343] was tested, and the EC1.5 was “A (EC1.5<1.0 uM)” and the “Fold Act. (percent maximum fold activation)” value was “A (Fold activation >200%)”.
In the case of `Cc1nc(NC(=O)c2cccc3[nH]c(-c4ccccc4C(F)(F)F)nc23)sc1C` [Compound 344], the EC1.5 is reported as “A (EC1.5<1.0 uM)” and the “Fold Act. (percent maximum fold activation)” value is reported as “A (Fold activation >200%)”.
`Cc1cc(C)nc(NC(=O)c2cccc3[nH]c(-c4ccccc4C(F)(F)F)nc23)c1` [Compound 345] was tested, and the EC1.5 was “A (EC1.5<1.0 uM)” and the “Fold Act. (percent maximum fold activation)” value was “A (Fold activation >200%)”.
With `Cc1cnc(NC(=O)c2cccc3[nH]c(-c4ccc(Cl)cc4C(F)(F)F)nc23)s1` [Compound 346] the EC1.5 was “A (EC1.5<1.0 uM)” and the “Fold Act. (percent maximum fold activation)” value was “A (Fold activation >200%)”.
For `O=C(Nc1nccs1)c1cccc2[nH]c(-c3cccc(OCCN4CCOCC4)c3)nc12` [Compound 347], the EC1.5 was “B (EC1.5 1-25 uM)” and the “Fold Act. (percent maximum fold activation)” value was “A (Fold activation >200%)”.
For `O=C(Nc1nccs1)c1cccc2[nH]c(-c3ccc(-c4nnn[nH]4)cc3)nc12` [Compound 348], the EC1.5 was “A (EC1.5<1.0 uM)” and the “Fold Act. (percent maximum fold activation)” value was “A (Fold activation >200%)”.
For `O=C(Nc1cccnc1)c1cccc2[nH]c(-c3ccc(-c4nnn[nH]4)cc3)nc12` [Compound 349], the EC1.5 was “A (EC1.5<1.0 uM)” and the “Fold Act. (percent maximum fold activation)” value was “B (Fold Activation <200%)”.
In the case of `O=C(Nc1cccnc1)c1cccc2[nH]c(-c3cccc(CN4CCOCC4)c3)nc12` [Compound 350], the EC1.5 is reported as “B (EC1.5 1-25 uM)” and the “Fold Act. (percent maximum fold activation)” value is reported as “A (Fold activation >200%)”.
For `O=C(Nc1nccs1)c1cccc2[nH]c(-c3cccc(CN4CCCC4)c3)nc12` [Compound 351], the EC1.5 was “B (EC1.5 1-25 uM)” and the “Fold Act. (percent maximum fold activation)” value was “A (Fold activation >200%)”.
With `O=C(Nc1cccnc1)c1cccc2[nH]c(-c3cccc(CN4CCCC4)c3)nc12` [Compound 352] the EC1.5 was “B (EC1.5 1-25 uM)” and the “Fold Act. (percent maximum fold activation)” value was “A (Fold activation >200%)”.
For `O=C(NC1CCOC1=O)c1cccc2[nH]c(-c3ccccc3C(F)(F)F)nc12` (centres unmarked) [Compound 353], the EC1.5 was “C (EC1.5 >25 uM)” and the “Fold Act. (percent maximum fold activation)” value was “B (Fold Activation <200%)”.
For `Cc1cc(NC(=O)c2cccc3[nH]c(-c4ccccc4C(F)(F)F)nc23)n(C)n1` [Compound 354], the EC1.5 was “A (EC1.5<1.0 uM)” and the “Fold Act. (percent maximum fold activation)” value was “A (Fold activation >200%)”.
For `O=C(NC1CCOC1=O)c1cccc2[nH]c(-c3ccc(Cl)cc3C(F)(F)F)nc12` (centres unmarked) [Compound 355], the EC1.5 was “B (EC1.5 1-25 uM)” and the “Fold Act. (percent maximum fold activation)” value was “A (Fold activation >200%)”.
`Cc1cc(NC(=O)c2cccc3[nH]c(-c4ccc(Cl)cc4C(F)(F)F)nc23)n(C)n1` [Compound 356] was tested, and the EC1.5 was “A (EC1.5<1.0 uM)” and the “Fold Act. (percent maximum fold activation)” value was “A (Fold activation >200%)”.
In the case of `Cc1cnc(NC(=O)c2cccc3[nH]c(-c4ccc(F)cc4C(F)(F)F)nc23)s1` [Compound 357], the EC1.5 is reported as “A (EC1.5<1.0 uM)” and the “Fold Act. (percent maximum fold activation)” value is reported as “A (Fold activation >200%)”.
`Cc1nc(NC(=O)c2cccc3[nH]c(-c4ccc(F)cc4C(F)(F)F)nc23)sc1C` [Compound 358] was tested, and the EC1.5 was “A (EC1.5<1.0 uM)” and the “Fold Act. (percent maximum fold activation)” value was “A (Fold activation >200%)”.
`Cc1cc(C)nc(NC(=O)c2cccc3[nH]c(-c4ccc(F)cc4C(F)(F)F)nc23)c1` [Compound 359] was tested, and the EC1.5 was “A (EC1.5<1.0 uM)” and the “Fold Act. (percent maximum fold activation)” value was “A (Fold activation >200%)”.
For `O=C(Nc1nccs1)c1cccc2[nH]c(-c3cccc(-c4nnn[nH]4)c3)nc12` [Compound 360], the EC1.5 was “A (EC1.5<1.0 uM)” and the “Fold Act. (percent maximum fold activation)” value was “A (Fold activation >200%)”.
For `O=C(Nc1ccccn1)c1cccc2[nH]c(-c3cccc(-c4nnn[nH]4)c3)nc12` [Compound 361], the EC1.5 was “A (EC1.5<1.0 uM)” and the “Fold Act. (percent maximum fold activation)” value was “A (Fold activation >200%)”.
In the case of `O=C(Nc1cccnc1)c1cccc2[nH]c(-c3cccc(-c4nnn[nH]4)c3)nc12` [Compound 362], the EC1.5 is reported as “A (EC1.5<1.0 uM)” and the “Fold Act. (percent maximum fold activation)” value is reported as “A (Fold activation >200%)”.
With `O=C(Nc1cccc2[nH]c(-c3ccccc3C(F)(F)F)nc12)c1cscn1` [Compound 363] the EC1.5 was “B (EC1.5 1-25 uM)” and the “Fold Act. (percent maximum fold activation)” value was “A (Fold activation >200%)”.
`O=C(Nc1cccc2[nH]c(-c3ccccc3C(F)(F)F)nc12)c1ccccn1` [Compound 364] was tested, and the EC1.5 was “B (EC1.5 1-25 uM)” and the “Fold Act. (percent maximum fold activation)” value was “A (Fold activation >200%)”.
With `O=C(Nc1cccc2[nH]c(-c3ccccc3C(F)(F)F)nc12)c1cccnc1` [Compound 365] the EC1.5 was “B (EC1.5 1-25 uM)” and the “Fold Act. (percent maximum fold activation)” value was “A (Fold activation >200%)”.
In the case of `O=C(Nc1cccc2[nH]c(-c3ccccc3C(F)(F)F)nc12)c1cnccn1` [Compound 366], the EC1.5 is reported as “B (EC1.5 1-25 uM)” and the “Fold Act. (percent maximum fold activation)” value is reported as “A (Fold activation >200%)”.
